Experimental data published in the CheMixHub viscosity set.
Several values for one entry are separate records, joined by “and”; a condition that tells them apart may be missing. Identical values can stand only once. ± gives the uncertainty stated by the source.

Test: xn = mol fraction of the nth substance listed

Compound: CN[C@@H]1[C@H](O[C@H]2[C@H](O[C@H]3[C@H](O)[C@@H](O)[C@H](NC(=N)N)[C@@H](O)[C@@H]3NC(=N)N)O[C@@H](C)[C@]2(O)C=O)O[C@@H](CO)[C@H](O)[C@H]1O.CN[C@@H]1[C@H](O[C@H]2[C@H](O[C@H]3[C@H](O)[C@@H](O)[C@H](NC(=N)N)[C@@H](O)[C@@H]3NC(=N)N)O[C@@H](C)[C@]2(O)C=O)O[C@@H](CO)[C@H](O)[C@H]1O.O=S(=O)(O)O.O=S(=O)(O)O.O=S(=O)(O)O + O
- viscosity (293.15 K, 101.3 kPa, x1 = 0.00018): 1.053 ± 0.06 mPa·s
- viscosity (293.15 K, 101.3 kPa, x1 = 0.0003604): 1.102 ± 0.061 mPa·s
- viscosity (293.15 K, 101.3 kPa, x1 = 0.00054): 1.156 ± 0.061 mPa·s
- viscosity (293.15 K, 101.3 kPa, x1 = 0.0007203): 1.207 ± 0.061 mPa·s
- viscosity (293.15 K, 101.3 kPa, x1 = 0.0009005): 1.266 ± 0.061 mPa·s
- viscosity (293.15 K, 101.3 kPa, x1 = 0.00108): 1.328 ± 0.061 mPa·s
- viscosity (293.15 K, 101.3 kPa, x1 = 0.00126): 1.393 ± 0.061 mPa·s
- viscosity (293.15 K, 101.3 kPa, x1 = 0.001439): 1.446 ± 0.061 mPa·s
- viscosity (298.15 K, 101 kPa, x1 = 7.6e-05): 0.9256 ± 0.019 mPa·s
- viscosity (298.15 K, 101 kPa, x1 = 0.0001): 0.9434 ± 0.0064 mPa·s
- viscosity (298.15 K, 101 kPa, x1 = 0.00015): 0.9504 ± 0.02 mPa·s
- viscosity (298.15 K, 101 kPa, x1 = 0.000216): 0.9744 ± 0.021 mPa·s
- viscosity (298.15 K, 101 kPa, x1 = 0.000286): 0.9974 ± 0.021 mPa·s
- viscosity (298.15 K, 101 kPa, x1 = 0.0003): 0.9849 ± 0.0066 mPa·s
- viscosity (298.15 K, 101 kPa, x1 = 0.000358): 1.02 ± 0.021 mPa·s
- viscosity (298.15 K, 101.3 kPa, x1 = 0.00018): 0.939 ± 0.06 mPa·s
- viscosity (298.15 K, 101.3 kPa, x1 = 0.0003604): 0.985 ± 0.06 mPa·s
- viscosity (298.15 K, 101.3 kPa, x1 = 0.00054): 1.037 ± 0.06 mPa·s
- viscosity (298.15 K, 101.3 kPa, x1 = 0.0007203): 1.089 ± 0.061 mPa·s
- viscosity (298.15 K, 101.3 kPa, x1 = 0.0009005): 1.147 ± 0.061 mPa·s
- viscosity (298.15 K, 101.3 kPa, x1 = 0.00108): 1.192 ± 0.061 mPa·s
- viscosity (298.15 K, 101.3 kPa, x1 = 0.00126): 1.249 ± 0.061 mPa·s
- viscosity (298.15 K, 101.3 kPa, x1 = 0.001439): 1.296 ± 0.061 mPa·s
- viscosity (298.15 K, 101.33 kPa, x1 = 7e-07): 0.8964 ± 0.042 mPa·s
- viscosity (298.15 K, 101.33 kPa, x1 = 9e-07): 0.8973 ± 0.042 mPa·s
- viscosity (298.15 K, 101.33 kPa, x1 = 1e-06): 0.8981 ± 0.042 mPa·s and 0.899 ± 0.042 mPa·s and 0.8998 ± 0.042 mPa·s
- viscosity (298.15 K, 101.33 kPa, x1 = 1.8e-06): 0.9034 ± 0.042 mPa·s
- viscosity (298.15 K, 101.33 kPa, x1 = 2e-06): 0.9025 ± 0.042 mPa·s and 0.9043 ± 0.042 mPa·s
- viscosity (298.15 K, 101.33 kPa, x1 = 2.2e-06): 0.9051 ± 0.042 mPa·s
- viscosity (303.15 K, 101 kPa, x1 = 7.6e-05): 0.8296 ± 0.017 mPa·s
- viscosity (303.15 K, 101 kPa, x1 = 0.0001): 0.8493 ± 0.0058 mPa·s
- viscosity (303.15 K, 101 kPa, x1 = 0.00015): 0.8528 ± 0.018 mPa·s
- viscosity (303.15 K, 101 kPa, x1 = 0.000216): 0.8752 ± 0.018 mPa·s
- viscosity (303.15 K, 101 kPa, x1 = 0.000286): 0.8971 ± 0.019 mPa·s
- viscosity (303.15 K, 101 kPa, x1 = 0.0003): 0.8904 ± 0.0061 mPa·s
- viscosity (303.15 K, 101 kPa, x1 = 0.000358): 0.919 ± 0.019 mPa·s
- viscosity (303.15 K, 101.3 kPa, x1 = 0.00018): 0.844 ± 0.06 mPa·s
- viscosity (303.15 K, 101.3 kPa, x1 = 0.0003604): 0.887 ± 0.06 mPa·s
- viscosity (303.15 K, 101.3 kPa, x1 = 0.00054): 0.936 ± 0.06 mPa·s
- viscosity (303.15 K, 101.3 kPa, x1 = 0.0007203): 0.981 ± 0.06 mPa·s
- viscosity (303.15 K, 101.3 kPa, x1 = 0.0009005): 1.035 ± 0.06 mPa·s
- viscosity (303.15 K, 101.3 kPa, x1 = 0.00108): 1.079 ± 0.061 mPa·s
- viscosity (303.15 K, 101.3 kPa, x1 = 0.00126): 1.126 ± 0.061 mPa·s
- viscosity (303.15 K, 101.3 kPa, x1 = 0.001439): 1.171 ± 0.061 mPa·s
- viscosity (303.15 K, 101.33 kPa, x1 = 5e-07): 0.8016 ± 0.041 mPa·s
- viscosity (303.15 K, 101.33 kPa, x1 = 7e-07): 0.8024 ± 0.041 mPa·s
- viscosity (303.15 K, 101.33 kPa, x1 = 9e-07): 0.8032 ± 0.041 mPa·s
- viscosity (303.15 K, 101.33 kPa, x1 = 1e-06): 0.804 ± 0.041 mPa·s and 0.8048 ± 0.041 mPa·s and 0.8056 ± 0.041 mPa·s
- viscosity (303.15 K, 101.33 kPa, x1 = 1.8e-06): 0.8089 ± 0.041 mPa·s
- viscosity (303.15 K, 101.33 kPa, x1 = 2e-06): 0.8064 ± 0.041 mPa·s and 0.8097 ± 0.041 mPa·s
- viscosity (303.15 K, 101.33 kPa, x1 = 2.2e-06): 0.8105 ± 0.041 mPa·s
- viscosity (305.15 K, 101 kPa, x1 = 0.0002): 0.826 ± 0.0053 mPa·s
- viscosity (305.15 K, 101 kPa, x1 = 0.0004): 0.8609 ± 0.0055 mPa·s
- viscosity (308.15 K, 101 kPa, x1 = 7.6e-05): 0.7487 ± 0.016 mPa·s
- viscosity (308.15 K, 101 kPa, x1 = 0.0001): 0.7667 ± 0.0053 mPa·s
- viscosity (308.15 K, 101 kPa, x1 = 0.00015): 0.771 ± 0.016 mPa·s
- viscosity (308.15 K, 101 kPa, x1 = 0.000216): 0.7923 ± 0.017 mPa·s
- viscosity (308.15 K, 101 kPa, x1 = 0.000286): 0.8134 ± 0.017 mPa·s
- viscosity (308.15 K, 101 kPa, x1 = 0.0003): 0.8077 ± 0.0056 mPa·s
- viscosity (308.15 K, 101 kPa, x1 = 0.000358): 0.834 ± 0.018 mPa·s
- viscosity (308.15 K, 101.3 kPa, x1 = 0.00018): 0.764 ± 0.06 mPa·s
- viscosity (308.15 K, 101.3 kPa, x1 = 0.0003604): 0.806 ± 0.06 mPa·s
- viscosity (308.15 K, 101.3 kPa, x1 = 0.00054): 0.848 ± 0.06 mPa·s
- viscosity (308.15 K, 101.3 kPa, x1 = 0.0007203): 0.893 ± 0.06 mPa·s
- viscosity (308.15 K, 101.3 kPa, x1 = 0.0009005): 0.943 ± 0.06 mPa·s
- viscosity (308.15 K, 101.3 kPa, x1 = 0.00108): 0.984 ± 0.06 mPa·s
- viscosity (308.15 K, 101.3 kPa, x1 = 0.00126): 1.026 ± 0.06 mPa·s
- viscosity (308.15 K, 101.3 kPa, x1 = 0.001439): 1.072 ± 0.061 mPa·s
- viscosity (310.15 K, 101 kPa, x1 = 0.0002): 0.7448 ± 0.0049 mPa·s
- viscosity (310.15 K, 101 kPa, x1 = 0.0004): 0.7702 ± 0.005 mPa·s
- viscosity (313.15 K, 101 kPa, x1 = 7.6e-05): 0.6801 ± 0.014 mPa·s
- viscosity (313.15 K, 101 kPa, x1 = 0.0001): 0.6932 ± 0.0049 mPa·s
- viscosity (313.15 K, 101 kPa, x1 = 0.00015): 0.7016 ± 0.015 mPa·s
- viscosity (313.15 K, 101 kPa, x1 = 0.000216): 0.722 ± 0.015 mPa·s
- viscosity (313.15 K, 101 kPa, x1 = 0.000286): 0.7425 ± 0.016 mPa·s
- viscosity (313.15 K, 101 kPa, x1 = 0.0003): 0.7345 ± 0.0052 mPa·s
- viscosity (313.15 K, 101 kPa, x1 = 0.000358): 0.7623 ± 0.016 mPa·s
- viscosity (313.15 K, 101.3 kPa, x1 = 0.00018): 0.698 ± 0.06 mPa·s
- viscosity (313.15 K, 101.3 kPa, x1 = 0.0003604): 0.739 ± 0.06 mPa·s
- viscosity (313.15 K, 101.3 kPa, x1 = 0.00054): 0.784 ± 0.06 mPa·s
- viscosity (313.15 K, 101.3 kPa, x1 = 0.0007203): 0.822 ± 0.06 mPa·s
- viscosity (313.15 K, 101.3 kPa, x1 = 0.0009005): 0.866 ± 0.06 mPa·s
- viscosity (313.15 K, 101.3 kPa, x1 = 0.00108): 0.904 ± 0.06 mPa·s
- viscosity (313.15 K, 101.3 kPa, x1 = 0.00126): 0.946 ± 0.06 mPa·s
- viscosity (313.15 K, 101.3 kPa, x1 = 0.001439): 0.989 ± 0.06 mPa·s
- viscosity (315.15 K, 101 kPa, x1 = 0.0002): 0.6863 ± 0.0046 mPa·s
- viscosity (315.15 K, 101 kPa, x1 = 0.0004): 0.7114 ± 0.0047 mPa·s
- viscosity (318.15 K, 101 kPa, x1 = 7.6e-05): 0.6228 ± 0.013 mPa·s
- viscosity (318.15 K, 101 kPa, x1 = 0.0001): 0.6275 ± 0.0046 mPa·s
- viscosity (318.15 K, 101 kPa, x1 = 0.00015): 0.6432 ± 0.014 mPa·s
- viscosity (318.15 K, 101 kPa, x1 = 0.000216): 0.6631 ± 0.014 mPa·s
- viscosity (318.15 K, 101 kPa, x1 = 0.000286): 0.683 ± 0.014 mPa·s
- viscosity (318.15 K, 101 kPa, x1 = 0.0003): 0.6686 ± 0.0048 mPa·s
- viscosity (318.15 K, 101 kPa, x1 = 0.000358): 0.7027 ± 0.015 mPa·s
